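The compound was tested at five concentrations on cells cultured in 96-well plates, with a 48-hour exposure period. GI50 marks 50% less growth.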 Calls of active or inactive are those of the source. No stated cut-off is given here; in the data, active = GI50 up to about 1.1 µM and inactive = higher.
Columns and labels:
Assay in all cases: NCI anticancer screen, dose series, 48 h
EKVX = system: EKVX
CCRF-CEM = system: CCRF-CEM
RXF 393 = system: RXF 393
DMS-273 = system: DMS-273
COLO 205 = system: COLO 205
SF-539 = system: SF-539
A498 = system: A498
UACC-62 = system: UACC-62
M14 = system: M14
KM-20L2 = system: KM-20L2
K562 = system: K562
HCC 2998 = system: HCC 2998
786-0 = system: 786-0
MCF7 = system: MCF7
U-251 = system: U-251
LOX IMVI = system: LOX IMVI
TK-10 = system: TK-10
NCI/ADR-RES = system: NCI/ADR-RES
ACHN = system: ACHN
RPMI-8226 = system: RPMI-8226
HOP-92 = system: HOP-92
Malme-3M = system: Malme-3M
SF-295 = system: SF-295
OVCAR-5 = system: OVCAR-5
NCI-H460 = system: NCI-H460
SNB-19 = system: SNB-19
SF-268 = system: SF-268
HOP-18 = system: HOP-18
OVCAR-3 = system: OVCAR-3
A549 = system: A549
SW-620 = system: SW-620
UACC-257 = system: UACC-257
KM12 = system: KM12
SK-MEL-5 = system: SK-MEL-5
DMS-114 = system: DMS-114
LXFL 529 = system: LXFL 529
DLD-1 = system: DLD-1
SK-MEL-2 = system: SK-MEL-2
HT-29 = system: HT-29
HCT-15 = system: HCT-15
SNB-78 = system: SNB-78
SNB-75 = system: SNB-75
HL-60 = system: HL-60
CAKI-1 = system: CAKI-1
NCI-H522 = system: NCI-H522
SK-OV-3 = system: SK-OV-3
SK-MEL-28 = system: SK-MEL-28
NCI-H226 = system: NCI-H226
SN12C = system: SN12C
IGROV-1 = system: IGROV-1
OVCAR-8 = system: OVCAR-8
XF498 = system: XF498
M19-MEL = system: M19-MEL
HCT-116 = system: HCT-116
UO-31 = system: UO-31
OVCAR-4 = system: OVCAR-4
NCI-H23 = system: NCI-H23
HOP-62 = system: HOP-62
SR = system: SR
MOLT-4 = system: MOLT-4

`CN(C)CCNC(=O)c1cc([N+](=O)[O-])cc2ccc(-c3ccccc3)nc12` was tested, and the GI50 (EKVX) was 24.7 µM (inactive), the GI50 (CCRF-CEM) was 3.1 µM (inactive) and the GI50 (RXF 393) was 6.04 µM (inactive). For the same molecule, the GI50 (DMS-273) was 5.62 µM (inactive), the GI50 (COLO 205) was 6.05 µM (inactive) and the GI50 (SF-539) was 7.66 µM (inactive). The GI50 (A498) was 3.78 µM (inactive), the GI50 (UACC-62) was 4.62 µM (inactive) and the GI50 (M14) was 33.7 µM (inactive). For the same molecule, the GI50 (KM-20L2) was 6.46 µM (inactive), the GI50 (K562) was 17.1 µM (inactive) and the GI50 (HCC 2998) was 7.36 µM (inactive). The GI50 (786-0) was 16.4 µM (inactive), the GI50 (MCF7) was 2.71 µM (inactive) and the GI50 (U-251) was 10.2 µM (inactive). The GI50 (LOX IMVI) was 7.03 µM (inactive), the GI50 (TK-10) was 22.2 µM (inactive) and the GI50 (NCI/ADR-RES) was 2.17 µM (inactive). For the same molecule, the GI50 (ACHN) was 10.5 µM (inactive), the GI50 (RPMI-8226) was 17.7 µM (inactive) and the GI50 (HOP-92) was 10.5 µM (inactive). For the same molecule, the GI50 (Malme-3M) was 6.59 µM (inactive), the GI50 (SF-295) was 8.79 µM (inactive) and the GI50 (OVCAR-5) was 6.4 µM (inactive). For the same molecule, the GI50 (NCI-H460) was 3.8 µM (inactive), the GI50 (SNB-19) was 8.02 µM (inactive) and the GI50 (SF-268) was 7.91 µM (inactive). For the same molecule, the GI50 (HOP-18) was 4.97 µM (inactive), the GI50 (OVCAR-3) was 10.9 µM (inactive) and the GI50 (A549) was 7.64 µM (inactive). For the same molecule, the GI50 (SW-620) was 5.22 µM (inactive), the GI50 (UACC-257) was 5.75 µM (inactive) and the GI50 (KM12) was 7.94 µM (inactive). The GI50 (SK-MEL-5) was 4.7 µM (inactive), the GI50 (DMS-114) was 7.16 µM (inactive) and the GI50 (LXFL 529) was 18.3 µM (inactive). For the same molecule, the GI50 (DLD-1) was 9.2 µM (inactive), the GI50 (SK-MEL-2) was 19.3 µM (inactive) and the GI50 (HT-29) was 3.85 µM (inactive). The GI50 (HCT-15) was 7.26 µM, the GI50 (SNB-78) was 17.8 µM (inactive) and the GI50 (SNB-75) was 5.64 µM (inactive). The GI50 (HL-60) was 7.29 µM (inactive), the GI50 (CAKI-1) was 10 µM (inactive) and the GI50 (NCI-H522) was 3.85 µM (inactive). The GI50 (SK-OV-3) was 9.02 µM (inactive), the GI50 (SK-MEL-28) was 9.33 µM (inactive) and the GI50 (NCI-H226) was 3.27 µM (inactive). For the same molecule, the GI50 (SN12C) was 10.4 µM (inactive), the GI50 (IGROV-1) was 6.92 µM (inactive) and the GI50 (OVCAR-8) was 8.11 µM (inactive). For the same molecule, the GI50 (XF498) was 7.19 µM (inactive), the GI50 (M19-MEL) was 5.93 µM (inactive) and the GI50 (HCT-116) was 3.23 µM (inactive). The GI50 (UO-31) was 2.9 µM (inactive), the GI50 (OVCAR-4) was 5.55 µM (inactive) and the GI50 (NCI-H23) was 7.67 µM (inactive). The GI50 (HOP-62) was 12.9 µM (inactive).
In the case of `CCOC(=O)C[C@@H](C)[C@]1(C(=O)OC)CCCC1=O`, the GI50 (EKVX) was > 100 µM (inactive), the GI50 (CCRF-CEM) was 44.6 µM (inactive) and the GI50 (RXF 393) was > 100 µM (inactive). For the same molecule, the GI50 (DMS-273) was > 70.6 µM (inactive), the GI50 (COLO 205) was > 51.8 µM (inactive) and the GI50 (SF-539) was > 100 µM (inactive). For the same molecule, the GI50 (A498) was > 100 µM (inactive), the GI50 (SR) was 27.9 µM (inactive) and the GI50 (UACC-62) was > 100 µM (inactive). The GI50 (M14) was > 100 µM (inactive), the GI50 (KM-20L2) was > 59.2 µM (inactive) and the GI50 (K562) was > 100 µM (inactive). For the same molecule, the GI50 (HCC 2998) was > 100 µM (inactive), the GI50 (786-0) was > 70.6 µM (inactive) and the GI50 (U-251) was > 100 µM (inactive). For the same molecule, the GI50 (LOX IMVI) was > 47.1 µM (inactive), the GI50 (TK-10) was > 100 µM (inactive) and the GI50 (ACHN) was > 100 µM (inactive). The GI50 (RPMI-8226) was > 49.3 µM (inactive), the GI50 (HOP-92) was > 100 µM (inactive) and the GI50 (Malme-3M) was > 100 µM (inactive). For the same molecule, the GI50 (SF-295) was > 100 µM (inactive), the GI50 (OVCAR-5) was > 100 µM (inactive) and the GI50 (NCI-H460) was > 67 µM (inactive). The GI50 (SNB-19) was > 100 µM (inactive), the GI50 (SF-268) was > 90.8 µM (inactive) and the GI50 (HOP-18) was > 100 µM (inactive). The GI50 (OVCAR-3) was > 100 µM (inactive), the GI50 (A549) was > 100 µM (inactive) and the GI50 (SW-620) was > 100 µM (inactive). The GI50 (UACC-257) was > 100 µM (inactive), the GI50 (KM12) was > 100 µM (inactive) and the GI50 (SK-MEL-5) was > 100 µM (inactive). The GI50 (DMS-114) was > 44.4 µM (inactive), the GI50 (LXFL 529) was > 100 µM (inactive) and the GI50 (DLD-1) was > 47.2 µM (inactive). For the same molecule, the GI50 (SK-MEL-2) was > 100 µM (inactive), the GI50 (HT-29) was > 65.8 µM (inactive) and the GI50 (HCT-15) was greater than 100 µM. For the same molecule, the GI50 (SNB-78) was > 100 µM (inactive), the GI50 (SNB-75) was > 100 µM (inactive) and the GI50 (HL-60) was > 100 µM (inactive). For the same molecule, the GI50 (CAKI-1) was > 100 µM (inactive), the GI50 (NCI-H522) was > 100 µM (inactive) and the GI50 (SK-OV-3) was > 100 µM (inactive). For the same molecule, the GI50 (SK-MEL-28) was > 100 µM (inactive), the GI50 (NCI-H226) was > 100 µM (inactive) and the GI50 (SN12C) was > 100 µM (inactive). The GI50 (IGROV-1) was > 100 µM (inactive), the GI50 (OVCAR-8) was > 100 µM (inactive) and the GI50 (XF498) was > 100 µM (inactive). For the same molecule, the GI50 (M19-MEL) was > 100 µM (inactive), the GI50 (HCT-116) was > 41.1 µM (inactive) and the GI50 (UO-31) was > 100 µM (inactive). For the same molecule, the GI50 (OVCAR-4) was > 100 µM (inactive), the GI50 (MOLT-4) was > 100 µM (inactive) and the GI50 (NCI-H23) was > 71.9 µM (inactive). The GI50 (HOP-62) was > 100 µM (inactive).

Source: ChEMBL document CHEMBL1201862, “PubChem BioAssay data set” (2004)
